Key:
Assay type in all cases: cell-based
[1] = target: T1, TYK2 (Homo sapiens, UniProt P29597); test: TYK2 degradation MSD assay in EBV-B cells; set-up: endogenous in cells; host or cells: EBV-B cells; details: 4 to 24 hours incubation, read-out: TYK2 MSD DC50 rating in EBV-B
Description: (§1) Example 3. TYK2 Degradation MSD Assay in EBV-B, OCI-LY10, and Human PBMC Cells
(§2) Degradation of TYK2 in cells was quantitatively measured using Meso Scale Discovery (MSD) technology. EBV-B, OCI-LY10 or human PBMC cells were seeded in 96-well plates with a density of 0.4 million cells per well in 100 μl fresh media. Compounds were then added to the assay plates with a final top concentration of 1 to 10 μM in a 1:3 dilution series with total of 9 doses. The assay plates were then incubated for 4 to 24 hours at 37° C. under 5% CO2. The assay plates were then centrifuged for 5 minutes, and the cell pellets were treated with 100 μl/well RIPA lysis buffer (Boston Bioproducts, BP-115D) with protease and phosphatase inhibitors (Roche, 05892791001 and 04906837001). To prepare MSD assay plates (MSD, L15XA), the plates were coated with the capture antibody (Santa Cruz Biotechnology, SC-5271) in PBS, at 40 μl/well. The plates were then incubated overnight at 4° C., washed 3 times with 150 μl/well TBST buffer (Cell Signaling Technology, 9997S) and blocked with 150 μl/well blocking buffer (MSD, R93BA-4). Cell lysates were then added to MSD assay plates and the plates were incubated at room temperature for 1 hour. The plates were then washed 3 times with 150 μl/well TBST buffer and 25 μl/well primary detection antibody (Cell Signaling Technology, #9312). The assay plates were then incubated at room temperature for 1 hour, washed 3 times with 150 μl/well TBST buffer, and 25 μl/well secondary detection antibody, SULFO-TAG anti-rabbit antibody (MSD, R32AB-1) were added. The assay plates were then incubated at room temperature for 1 hour, washed 3 times with 150 μl/well TBST buffer, and 150 μl/well MSD reading buffer (MSD, R92TC-2) were added. The plates were then analyzed by an MSD reader. The data was analyzed by GraphPad Prism and the dose dependent TYK2 degradation was fit using the four-parameter inhibitor vs. response nonlinear regression. The DC50 data were measured and categorized into different levels in Table H. The compound with DC50 less than or equal to 1 nM is marked as A, with DC50 more than 1 nM and less than or equal to 10 nM is marked as B, with DC50 more than 10 nM and less than or equal to 100 nM is marked as C, and with DC50 more than 100 nM or not available is marked as D.

[2] = target: T1, TYK2; test: TYK2 degradation MSD assay in human PBMC cells; set-up: endogenous in cells; host or cells: human PBMC; details: 4 to 24 hours incubation, read-out: TYK2 MSD DC50 rating in human PBMC
Description: as §1, §2

[3] = target: T1, TYK2; test: TYK2 degradation MSD assay in OCI-LY10 cells; set-up: endogenous in cells; host or cells: EBV-B cells; details: 4 to 24 hours incubation, read-out: TYK2 MSD DC50 rating in OCI-LY10
Description: as §1, §2

T1 sequence (P29597 whole entry): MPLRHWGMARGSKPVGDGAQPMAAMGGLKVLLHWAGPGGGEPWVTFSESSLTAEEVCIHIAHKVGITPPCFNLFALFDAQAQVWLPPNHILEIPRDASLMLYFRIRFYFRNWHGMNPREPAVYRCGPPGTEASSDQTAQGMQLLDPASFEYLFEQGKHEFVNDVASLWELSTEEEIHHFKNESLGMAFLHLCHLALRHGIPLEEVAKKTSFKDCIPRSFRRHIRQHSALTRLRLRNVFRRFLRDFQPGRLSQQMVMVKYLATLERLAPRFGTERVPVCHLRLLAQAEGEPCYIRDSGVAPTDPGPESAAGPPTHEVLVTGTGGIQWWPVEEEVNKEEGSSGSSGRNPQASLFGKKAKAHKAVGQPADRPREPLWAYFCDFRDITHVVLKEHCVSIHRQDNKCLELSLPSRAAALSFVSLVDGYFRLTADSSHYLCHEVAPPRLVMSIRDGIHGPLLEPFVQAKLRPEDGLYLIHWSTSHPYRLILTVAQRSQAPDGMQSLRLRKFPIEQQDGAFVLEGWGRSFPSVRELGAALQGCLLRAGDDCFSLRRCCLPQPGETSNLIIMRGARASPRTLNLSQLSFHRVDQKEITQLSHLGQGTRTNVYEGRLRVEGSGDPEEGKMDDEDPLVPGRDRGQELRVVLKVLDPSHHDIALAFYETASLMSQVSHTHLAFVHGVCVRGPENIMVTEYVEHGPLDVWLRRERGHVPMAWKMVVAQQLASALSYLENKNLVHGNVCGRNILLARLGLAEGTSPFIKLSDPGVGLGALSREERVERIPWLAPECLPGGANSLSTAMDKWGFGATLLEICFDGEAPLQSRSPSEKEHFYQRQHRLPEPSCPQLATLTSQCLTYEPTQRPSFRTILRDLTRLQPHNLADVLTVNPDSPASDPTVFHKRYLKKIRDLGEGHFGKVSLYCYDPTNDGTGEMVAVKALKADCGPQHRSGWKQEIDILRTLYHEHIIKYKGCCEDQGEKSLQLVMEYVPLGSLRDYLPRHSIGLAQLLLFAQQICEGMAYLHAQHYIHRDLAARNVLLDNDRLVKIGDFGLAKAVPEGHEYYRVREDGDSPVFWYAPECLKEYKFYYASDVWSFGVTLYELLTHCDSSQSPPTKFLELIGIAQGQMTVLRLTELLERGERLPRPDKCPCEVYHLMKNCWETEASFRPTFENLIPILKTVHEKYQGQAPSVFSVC

Row | Structure (SMILES) | DC50 [1] [nM] | DC50 [2] [nM] | DC50 [3] [nM]
1 | CNc1cc(Nc2cccc(C3CCN(CC4CCN(c5ccc(-c6cccc7c6n(C)c(=O)n7C6CCC(=O)NC6=O)cc5)CC4)CC3)c2OC)nn2c(C(=O)N[C@@H]3C[C@@H]3F)cnc12 (mixture of isomers) [Example K538] | > 100 | > 100 | > 100
2 | COc1c(Nc2cc(C(F)F)c3ncc(C(=O)N[C@@H]4C[C@@H]4F)n3n2)cccc1-c1ccc(CN2CCN(c3ccc(-c4ccc5c(c4)n(C)c(=O)n5C4CCC(=O)NC4=O)cc3)CC2)cn1 (mixture of isomers) [Example K539] | > 100 | > 100 | > 100
3 | CNc1cc(-c2cn(C)c3c(C4CCN(CC5CCN(c6ccc(-c7ccc8c(c7)n(C)c(=O)n8C7CCC(=O)NC7=O)cc6)CC5)CC4)cccc23)nn2c(C(=O)N[C@@H]3C[C@@H]3F)cnc12 (mixture of isomers) [Example K540] | > 100 | > 100 | 1 to 10
4 | CNc1cc(Nc2cccc(-c3ccc(CN4CCN(c5ccc(-c6ccc7c(c6)n(C)c(=O)n7C6CCC(=O)NC6=O)cc5)CC4)cn3)c2Cl)nn2c(C(=O)N[C@@H]3C[C@@H]3F)cnc12 (mixture of isomers) [Example K541] | > 100 | > 100 | < 1
5 | CNc1cc(Nc2cccc(C#CCN3CCN(c4ccc(-c5ccc6c(c5)n(C)c(=O)n6C5CCC(=O)NC5=O)cc4)CC3)c2OC)nn2c(C(=O)N[C@@H]3C[C@@H]3F)cnc12 (mixture of isomers) [Example K543, 6-({3-[3-(4-{4-[1-(2,6-Dioxopiperidin-3-yl)-3-methyl-2-oxo-1,3-benzodiazol-5-yl]phenyl}piperazin-1-yl)prop-1-yn-1-yl]-2-methoxyphenyl}amino)-N-[(1R,2S)-2-fluorocyclopropyl]-8-(methylamino)imidazo[1,2-b]pyridazine-3-carboxamide] | > 100 | > 100 | < 1
6 | CNc1cc(-c2ccc(N3CCC(CN4CCN(c5ccc(-c6ccc7c(c6)n(C)c(=O)n7C6CCC(=O)NC6=O)cc5)CC4)CC3)cc2)nn2c(C(=O)N[C@@H]3C[C@@H]3F)cnc12 (mixture of isomers) [Example K545] | > 100 | > 100 | > 100
7 | CNc1cc(Oc2cnn(C3CCN(CC4CCN(c5ccc(-c6ccc7c(c6)n(C)c(=O)n7C6CCC(=O)NC6=O)cc5)CC4)CC3)c2)nn2c(C(=O)N[C@@H]3C[C@@H]3F)cnc12 (mixture of isomers) [Example K547] | > 100 | > 100 | > 100
8 | CNc1cc(Nc2cnn(CC3CCN(CC4CCN(c5ccc6c(c5)n(C)c(=O)n6C5CCC(=O)NC5=O)CC4)CC3)c2)nn2c(C(=O)N[C@@H]3C[C@@H]3F)cnc12 (mixture of isomers) [Example K548] | > 100 | > 100 | > 100
9 | CNc1cc(Nc2cccc(-c3ccc(CN4CCN([C@H]5CC[C@@H](c6ccc7c(c6)n(C)c(=O)n7C6CCC(=O)NC6=O)CC5)CC4)cn3)c2OC)nn2c(C(=O)N[C@@H]3C[C@@H]3F)cnc12 (mixture of isomers) [Example K552] | < 1 | > 100 | < 1
10 | CNc1cc(Nc2cccc(-c3ccc(CN4CCN([C@H]5CC[C@H](c6ccc7c(c6)n(C)c(=O)n7C6CCC(=O)NC6=O)CC5)CC4)cn3)c2OC)nn2c(C(=O)N[C@@H]3C[C@@H]3F)cnc12 (mixture of isomers) [Example K553] | < 1 | > 100 | < 1
11 | CNc1cc(N2CCc3c(CN4CCN(c5ccc(-c6ccc7c(c6)n(C)c(=O)n7C6CCC(=O)NC6=O)cc5)CC4)cccc32)nn2c(C(=O)N[C@@H]3C[C@@H]3F)cnc12 (mixture of isomers) [Example K575] | > 100 | > 100 | 1 to 10
12 | CNC(=O)c1cnc(NC(=O)NCCCCc2cccc3c2n(C)c(=O)n3C2CCC(=O)NC2=O)cc1Nc1cccc(-c2ncc(F)cn2)c1OC (centres unmarked) [Example K105] | > 100 | > 100 | > 100
13 | CNC(=O)c1cnc(NC(=O)NCCCCCCc2cccc3c2n(C)c(=O)n3C2CCC(=O)NC2=O)cc1Nc1cccc(-c2ncc(F)cn2)c1OC (centres unmarked) [Example K106] | > 100 | > 100 | > 100
14 | CNC(=O)c1cnc(Nc2ccc(C(=O)NCCCCc3ccc4c(c3)n(C)c(=O)n4C3CCC(=O)NC3=O)cn2)cc1Nc1cccc(-c2ncc(F)cn2)c1OC (centres unmarked) [Example K107] | > 100 | < 1 | > 100
15 | CNC(=O)c1cnc(Nc2ccc(C(=O)NCCCCCCc3ccc4c(c3)n(C)c(=O)n4C3CCC(=O)NC3=O)cn2)cc1Nc1cccc(-c2ncc(F)cn2)c1OC (centres unmarked) [Example K110] | > 100 | < 1 | > 100
16 | CNC(=O)c1cnc(Nc2ccc(C(=O)NCCOCCOCCc3ccc4c(c3)n(C)c(=O)n4C3CCC(=O)NC3=O)cn2)cc1Nc1cccc(-c2ncc(F)cn2)c1OC (centres unmarked) [Example K112] | 1 to 10 | 1 to 10 | > 100
17 | CNC(=O)c1cnc(Nc2ccc(C(=O)NCCOCCOCCOCCOCCc3ccc4c(c3)n(C)c(=O)n4C3CCC(=O)NC3=O)cn2)cc1Nc1cccc(-c2ncc(F)cn2)c1OC (centres unmarked) [Example K113] | > 100 | 1 to 10 | > 100
18 | CNc1cc(Nc2cccc(C(=O)NCCCCc3ccc4c(c3)n(C)c(=O)n4C3CCC(=O)NC3=O)c2)nn2c(C(=O)N[C@@H]3C[C@@H]3F)cnc12 (some centres unmarked) [Example K368] | > 100 | – | –

Results, then the compound that gave them:

Row | DC50 [1] [nM] | DC50 [2] [nM] | DC50 [3] [nM] | Structure (SMILES)
19 | > 100 | > 100 | > 100 | CNc1cc(-c2ccc(N3CCC(CN4CC5(CCN(c6cccc7c6n(C)c(=O)n7C6CCC(=O)NC6=O)CC5)C4)CC3)cc2)nn2c(C(=O)N[C@@H]3C[C@@H]3F)cnc12 (mixture of isomers) [Example K533]
20 | > 100 | > 100 | > 100 | CNc1cc(N2CCc3c(C4CCN(CC5CCN(C(=O)c6ccc(Cl)c(N7CCC(=O)NC7=O)c6)CC5)CC4)cccc32)nn2c(C(=O)N[C@@H]3C[C@@H]3F)cnc12 (racemic) [Example K535]
21 | > 100 | > 100 | < 1 | CNc1cc(N2CCc3c(C4CCN(CC5CCN(c6ccc(-c7ccc8c(c7)n(C)c(=O)n8C7CCC(=O)NC7=O)cc6)CC5)CC4)cccc32)nn2c(C(=O)N[C@@H]3C[C@@H]3F)cnc12 (mixture of isomers) [Example K536]
22 | > 100 | > 100 | < 1 | CNc1cc(N2CCc3c(-c4ccc(CN5CCC6(CC5)CCN(c5ccc7c(c5)n(C)c(=O)n7C5CCC(=O)NC5=O)CC6)cn4)cccc32)nn2c(C(=O)N[C@@H]3C[C@@H]3F)cnc12 (mixture of isomers) [Example K544]
23 | > 100 | > 100 | > 100 | CNc1cc(N2CCc3c(-c4ccc(CN5CCN(c6ccc(-c7cccc8c(N9CCC(=O)NC9=O)cncc78)cc6)CC5)cn4)cccc32)nn2c(C(=O)N[C@@H]3C[C@@H]3F)cnc12 (racemic) [Example K546]
24 | > 100 | > 100 | > 100 | CNC(=O)c1cnc(NC(=O)CCCCCCCc2ccc3c(c2)n(C)c(=O)n3C2CCC(=O)NC2=O)cc1Nc1cccc(-c2ncc(F)cn2)c1OC (centres unmarked) [Example K104]
25 | 1 to 10 | < 1 | > 100 | CNC(=O)c1cnc(Nc2ccc(C(=O)NCCCCCCCCc3ccc4c(c3)n(C)c(=O)n4C3CCC(=O)NC3=O)cn2)cc1Nc1cccc(-c2ncc(F)cn2)c1OC (centres unmarked) [Example K111]
26 | > 100 | – | – | CNc1cc(Nc2cccn(-c3cc(C(=O)NCCOCCOCCOCCOCCOCCOCCc4cccc5c4n(C)c(=O)n5C4CCC(=O)NC4=O)ccn3)c2=O)nn2c(C(=O)N[C@@H]3C[C@@H]3F)cnc12 (some centres unmarked) [Example K246]
27 | > 100 | – | < 1 | CNc1cc(Nc2cccn(-c3ccc(C(=O)N4CCC(CN5CCC(c6ccc7c(c6)n(C)c(=O)n7C6CCC(=O)NC6=O)CC5)CC4)cn3)c2=O)nn2c(C(=O)N[C@@H]3C[C@@H]3F)cnc12 (some centres unmarked) [Example K411]
28 | > 100 | – | – | CNc1cc(Nc2cccc(-c3ccc(CN4CCN(c5ccc(-c6ccc7c(c6)n(C)c(=O)n7C6CCC(=O)NC6=O)cc5)CC4)cn3)c2)nn2c(C(=O)N[C@@H]3C[C@@H]3F)cnc12 (some centres unmarked) [Example K511]
